Experiment: xn = mol fraction of the nth substance listed
Conditions: 101 kPa

[N-]=C=S.[NH4+] + CC(=O)[O-].CC[n+]1ccn(C)c1
Conditions	electrical conductivity [S/m]	viscosity [mPa·s]
298.15 K, x1 = 0.02	0.294	136.6
298.15 K, x1 = 0.1002	0.284	160.2
298.15 K, x1 = 0.1998	0.296	190.7
298.15 K, x1 = 0.2514	0.314	198.6
298.15 K, x1 = 0.3413	0.358	196.4
303.15 K, x1 = 0.02	0.382	100.9
303.15 K, x1 = 0.2514	0.411	144.4
303.15 K, x1 = 0.3199	0.458	142.8
303.15 K, x1 = 0.3413	0.463	143.6
308.15 K, x1 = 0.02	0.483	76.4
308.15 K, x1 = 0.1002	0.473	88.5
308.15 K, x1 = 0.3001	0.569	105.9
308.15 K, x1 = 0.3199	0.58	106.6
313.15 K, x1 = 0.02	0.601	59.3
313.15 K, x1 = 0.1002	0.593	68.1
313.15 K, x1 = 0.1998	0.617	79.3
313.15 K, x1 = 0.2514	0.66	81.5
313.15 K, x1 = 0.3001	0.782	80.5
313.15 K, x1 = 0.3199	0.797	81.1
318.15 K, x1 = 0.02	0.82	46.9
318.15 K, x1 = 0.1002	0.811	53.3
318.15 K, x1 = 0.2514	0.901	62.9
318.15 K, x1 = 0.3001	0.968	62.3
318.15 K, x1 = 0.3199	0.986	62.8
318.15 K, x1 = 0.3413	0.997	63.3
323.15 K, x1 = 0.02	0.986	37.8
323.15 K, x1 = 0.1002	0.987	42.5
323.15 K, x1 = 0.1998	1.04	48.4
323.15 K, x1 = 0.2514	1.1	49.3
323.15 K, x1 = 0.3001	1.18	48.9
323.15 K, x1 = 0.3199	1.2	49.3
323.15 K, x1 = 0.3413	1.21	49.8
328.15 K, x1 = 0.02	–	30.91
328.15 K, x1 = 0.1998	–	38.62
328.15 K, x1 = 0.2514	–	39.15
328.15 K, x1 = 0.3001	–	38.91
328.15 K, x1 = 0.3413	–	39.67
333.15 K, x1 = 0.2514	–	31.49
333.15 K, x1 = 0.3199	–	31.67
333.15 K, x1 = 0.3413	–	32

CCOS(=O)(=O)[O-].CC[n+]1ccn(C)c1 + [N-]=C=S.[NH4+]
x2 = 0
Conditions	electrical conductivity [S/m]	viscosity [mPa·s]
298.15 K	0.38	95.9
303.15 K	0.468	75.63
308.15 K	0.566	60.66
313.15 K	0.675	49.45
318.15 K	0.856	40.88
323.15 K	1	34.24
328.15 K	–	28.99
333.15 K	–	24.81

CC(=O)[O-].CC[n+]1ccn(C)c1 + [N-]=C=S.[NH4+]
x2 = 0
Conditions	electrical conductivity [S/m]	viscosity [mPa·s]
298.15 K	0.295	128.4
303.15 K	0.383	95.1
308.15 K	0.483	72.4
318.15 K	0.819	44.8
323.15 K	0.984	36.27
328.15 K	–	29.81
333.15 K	–	24.86

[N-]=C=S.[NH4+] + CCOS(=O)(=O)[O-].CC[n+]1ccn(C)c1
Conditions	electrical conductivity [S/m]	viscosity [mPa·s]
298.15 K, x1 = 0.1553	0.319	150
298.15 K, x1 = 0.4042	0.279	231.1
298.15 K, x1 = 0.5205	0.281	224
298.15 K, x1 = 0.565	0.295	215.9
298.15 K, x1 = 0.5997	0.301	208.9
303.15 K, x1 = 0.0235	0.461	81.3
303.15 K, x1 = 0.1553	0.398	118
303.15 K, x1 = 0.3025	0.358	163.3
303.15 K, x1 = 0.4042	0.353	178.7
303.15 K, x1 = 0.5205	0.358	173.4
303.15 K, x1 = 0.5997	0.385	168.2
308.15 K, x1 = 0.0235	0.56	65.16
308.15 K, x1 = 0.1553	0.486	94.3
308.15 K, x1 = 0.5205	0.446	135.3
308.15 K, x1 = 0.565	0.468	133.9
308.15 K, x1 = 0.5997	0.481	133.7
313.15 K, x1 = 0.0235	0.67	53.09
313.15 K, x1 = 0.1553	0.584	76.57
313.15 K, x1 = 0.3025	0.531	104.6
313.15 K, x1 = 0.4042	0.526	112.9
313.15 K, x1 = 0.5205	0.546	107.5
313.15 K, x1 = 0.565	0.573	106
318.15 K, x1 = 0.0235	0.846	43.86
318.15 K, x1 = 0.1553	0.739	63.03
318.15 K, x1 = 0.3025	0.633	85.6
318.15 K, x1 = 0.4042	0.633	91.8
318.15 K, x1 = 0.5997	0.751	84.6
323.15 K, x1 = 0.0235	0.99	36.68
323.15 K, x1 = 0.1553	0.867	52.56
323.15 K, x1 = 0.3025	0.795	70.9
323.15 K, x1 = 0.4042	0.795	75.6
323.15 K, x1 = 0.5205	0.831	71.22
323.15 K, x1 = 0.5997	0.896	68.92
328.15 K, x1 = 0.0235	–	31.04
328.15 K, x1 = 0.1553	–	44.26
328.15 K, x1 = 0.3025	–	59.41
328.15 K, x1 = 0.4042	–	63.04
328.15 K, x1 = 0.5205	–	59.16
328.15 K, x1 = 0.565	–	57.79
328.15 K, x1 = 0.5997	–	56.96
333.15 K, x1 = 0.1553	–	37.68
333.15 K, x1 = 0.5205	–	49.72
333.15 K, x1 = 0.565	–	48.47

— a compilation of properties of binary mixtures (doi:10.1039/c2cc30374d)
